Calls of active or inactive are those of the source. How the calls were made is not given here.
Tested on: CCRIS mutagenicity, Ames/micronucleus/aberration tests
Experiment: CCRIS mutagenicity studies
[1] = Test System: AMES SALMONELLA TYPHIMURIUM, Strain/Indicator: TA97, Metabolic Activation: HAMSTER, LIVER, S-9, AROCLOR 1254 (10%), Method: PREINCUBATION
[2] = Test System: AMES SALMONELLA TYPHIMURIUM, Strain/Indicator: TA97, Metabolic Activation: NONE, Method: PREINCUBATION
[3] = Test System: AMES SALMONELLA TYPHIMURIUM, Strain/Indicator: TA97, Metabolic Activation: RAT, LIVER, S-9, AROCLOR 1254 (10%), Method: PREINCUBATION
[4] = Test System: AMES SALMONELLA TYPHIMURIUM, Strain/Indicator: TA98, Metabolic Activation: HAMSTER, LIVER, S-9, AROCLOR 1254 (10%), Method: PREINCUBATION
[5] = Test System: AMES SALMONELLA TYPHIMURIUM, Strain/Indicator: TA98, Metabolic Activation: NONE, Method: PREINCUBATION
[6] = Test System: AMES SALMONELLA TYPHIMURIUM, Strain/Indicator: TA98, Metabolic Activation: RAT, LIVER, S-9, AROCLOR 1254 (10%), Method: PREINCUBATION
[7] = Test System: AMES SALMONELLA TYPHIMURIUM, Strain/Indicator: TA100, Metabolic Activation: RAT, LIVER, S-9, AROCLOR 1254 (10%), Method: PREINCUBATION
[8] = Test System: AMES SALMONELLA TYPHIMURIUM, Strain/Indicator: TA100, Metabolic Activation: RAT, LIVER, S-9, AROCLOR 1254, Method: STANDARD PLATE
[9] = Test System: AMES SALMONELLA TYPHIMURIUM, Strain/Indicator: TA1535, Metabolic Activation: HAMSTER, LIVER, S-9, AROCLOR 1254 (10%), Method: PREINCUBATION
[10] = Test System: AMES SALMONELLA TYPHIMURIUM, Strain/Indicator: TA1535, Metabolic Activation: NONE, Method: PREINCUBATION
[11] = Test System: AMES SALMONELLA TYPHIMURIUM, Strain/Indicator: TA1535, Metabolic Activation: RAT, LIVER, S-9, AROCLOR 1254 (10%), Method: PREINCUBATION
[12] = Test System: AMES SALMONELLA TYPHIMURIUM, Strain/Indicator: TA100, Metabolic Activation: NONE, Method: STANDARD PLATE
[13] = Test System: AMES SALMONELLA TYPHIMURIUM, Strain/Indicator: TA98, Metabolic Activation: NONE, Method: STANDARD PLATE

O=C(O)c1ccccc1[N+](=O)[O-]
mutagenic call [1]: inactive; negative | mutagenic call [2]: inactive; negative | mutagenic call [3]: inactive; negative | mutagenic call [4]: inactive; negative | mutagenic call [5]: active; positive | mutagenic call [6]: inactive; negative | mutagenic call (Test System: AMES SALMONELLA TYPHIMURIUM, Strain/Indicator: TA98, Metabolic Activation: RAT, LIVER, S-9, KANECHLOR 500, Method: PREINCUBATION): active; positive | mutagenic call (Test System: AMES SALMONELLA TYPHIMURIUM, Strain/Indicator: TA100, Metabolic Activation: HAMSTER, LIVER, S-9, AROCLOR 1254 (5 OR 30%), Method: PREINCUBATION): inactive; negative | mutagenic call (Test System: AMES SALMONELLA TYPHIMURIUM, Strain/Indicator: TA100, Metabolic Activation: HAMSTER, LIVER, S-9, AROCLOR 1254, FLAVIN MONONUCLEOTIDE, Method: PREINCUBATION): inactive; negative | mutagenic call (Test System: AMES SALMONELLA TYPHIMURIUM, Strain/Indicator: TA100, Metabolic Activation: HAMSTER, LIVER, S-9, AROCLOR 1254, Method: PREINCUBATION): inactive; negative | mutagenic call (Test System: AMES SALMONELLA TYPHIMURIUM, Strain/Indicator: TA100, Metabolic Activation: RAT, LIVER, S-9, AROCLOR 1254 (5 OR 30%), Method: PREINCUBATION): inactive; negative | mutagenic call [7]: inactive; negative | mutagenic call (Test System: AMES SALMONELLA TYPHIMURIUM, Strain/Indicator: TA100, Metabolic Activation: RAT, LIVER, S-9, AROCLOR 1254, FLAVIN MONONUCLEOTIDE, Method: PREINCUBATION): inactive; negative | mutagenic call [8]: inactive; negative | mutagenic call (Test System: AMES SALMONELLA TYPHIMURIUM, Strain/Indicator: TA100, Metabolic Activation: RAT, LIVER, S-9, KANECHLOR 500, Method: PREINCUBATION): active; positive | mutagenic call [9]: inactive; negative | mutagenic call [10]: inactive; negative | mutagenic call [11]: inactive; negative | mutagenic call (Test System: AMES SALMONELLA TYPHIMURIUM, Strain/Indicator: TA1537, Metabolic Activation: NONE, Method: PREINCUBATION): inactive; negative | mutagenic call (Test System: AMES SALMONELLA TYPHIMURIUM, Strain/Indicator: TA1538, Metabolic Activation: NONE, Method: PREINCUBATION): active; positive

CCC(C)c1ccccc1OC(=O)N(C)N=O (centres undefined)
mutagenic call (Test System: E. COLI WP2, Strain/Indicator: WP2, Metabolic Activation: NONE, Method: STANDARD PLATE): active; positive

Oc1cccc2c1-c1cc3cccc4ccc5ccc-2c1c5c43
mutagenic call [8]: active; positive

O=S(=O)(O)Oc1ccc2ccc3cc4ccccc4c4ccc1c2c34
mutagenic call [5]: active; positive | mutagenic call (Test System: AMES SALMONELLA TYPHIMURIUM, Strain/Indicator: TA98, Metabolic Activation: RAT, LIVER, S-9, AROCLOR 1254, Method: PREINCUBATION): active; positive | mutagenic call (Test System: AMES SALMONELLA TYPHIMURIUM, Strain/Indicator: TA98, Metabolic Activation: RAT, LUNG, S-9, Method: PREINCUBATION): active; positive

CCCCC(CC)COCCC#N (centres undefined)
mutagenic call [1]: inactive; negative | mutagenic call (Test System: AMES SALMONELLA TYPHIMURIUM, Strain/Indicator: TA97, Metabolic Activation: HAMSTER, LIVER, S-9, AROCLOR 1254 (30%), Method: PREINCUBATION): inactive; negative | mutagenic call [2]: inactive; negative | mutagenic call [3]: inactive; negative | mutagenic call (Test System: AMES SALMONELLA TYPHIMURIUM, Strain/Indicator: TA97, Metabolic Activation: RAT, LIVER, S-9, AROCLOR 1254 (30%), Method: PREINCUBATION): inactive; negative | mutagenic call [4]: inactive; negative | mutagenic call (Test System: AMES SALMONELLA TYPHIMURIUM, Strain/Indicator: TA98, Metabolic Activation: HAMSTER, LIVER, S-9, AROCLOR 1254 (30%), Method: PREINCUBATION): inactive; negative | mutagenic call [5]: inactive; negative | mutagenic call [6]: inactive; negative | mutagenic call (Test System: AMES SALMONELLA TYPHIMURIUM, Strain/Indicator: TA98, Metabolic Activation: RAT, LIVER, S-9, AROCLOR 1254 (30%), Method: PREINCUBATION): inactive; negative | mutagenic call (Test System: AMES SALMONELLA TYPHIMURIUM, Strain/Indicator: TA100, Metabolic Activation: HAMSTER, LIVER, S-9, AROCLOR 1254 (10%), Method: PREINCUBATION): inactive; negative | mutagenic call (Test System: AMES SALMONELLA TYPHIMURIUM, Strain/Indicator: TA100, Metabolic Activation: HAMSTER, LIVER, S-9, AROCLOR 1254 (30%), Method: PREINCUBATION): inactive; negative | mutagenic call (Test System: AMES SALMONELLA TYPHIMURIUM, Strain/Indicator: TA100, Metabolic Activation: NONE, Method: PREINCUBATION): inactive; negative | mutagenic call [7]: inactive; negative | mutagenic call (Test System: AMES SALMONELLA TYPHIMURIUM, Strain/Indicator: TA100, Metabolic Activation: RAT, LIVER, S-9, AROCLOR 1254 (30%), Method: PREINCUBATION): inactive; negative | mutagenic call [9]: inactive; negative | mutagenic call (Test System: AMES SALMONELLA TYPHIMURIUM, Strain/Indicator: TA1535, Metabolic Activation: HAMSTER, LIVER, S-9, AROCLOR 1254 (30%), Method: PREINCUBATION): inactive; negative | mutagenic call [10]: inactive; negative | mutagenic call [11]: inactive; negative | mutagenic call (Test System: AMES SALMONELLA TYPHIMURIUM, Strain/Indicator: TA1535, Metabolic Activation: RAT, LIVER, S-9, AROCLOR 1254 (30%), Method: PREINCUBATION): inactive; negative

Cn1ccnc1N=O
mutagenic call [12]: active; positive

O[C@@H]1[C@@H]2O[C@@H]2c2c(ccc3ccc4ccccc4c23)[C@H]1O
mutagenic call (Test System: E. COLI, Strain/Indicator: CL101P, Metabolic Activation: NONE, Method: PREINCUBATION): active; positive | mutagenic call (Test System: E. COLI, Strain/Indicator: CL102P, Metabolic Activation: NONE, Method: PREINCUBATION): active; positive | mutagenic call (Test System: E. COLI, Strain/Indicator: CL103P, Metabolic Activation: NONE, Method: PREINCUBATION): active; positive | mutagenic call (Test System: E. COLI, Strain/Indicator: CL104P, Metabolic Activation: NONE, Method: PREINCUBATION): active; positive | mutagenic call (Test System: E. COLI, Strain/Indicator: CL105P, Metabolic Activation: NONE, Method: PREINCUBATION): active; positive | mutagenic call (Test System: E. COLI, Strain/Indicator: CL106P, Metabolic Activation: NONE, Method: PREINCUBATION): active; positive

COc1nsc2cc([N+](=O)[O-])ccc12
mutagenic call [13]: active; positive

CC(C)NCC(O)COc1cccc2c1C=CC2 (centres undefined)
mutagenic call [13]: inactive; negative | mutagenic call (Test System: AMES SALMONELLA TYPHIMURIUM, Strain/Indicator: TA98, Metabolic Activation: RAT, LIVER, S-9, AROCLOR 1254, Method: STANDARD PLATE): inactive; negative | mutagenic call [12]: inactive; negative | mutagenic call [8]: inactive; negative | mutagenic call (Test System: AMES SALMONELLA TYPHIMURIUM, Strain/Indicator: TA102, Metabolic Activation: NONE, Method: STANDARD PLATE): inactive; negative | mutagenic call (Test System: AMES SALMONELLA TYPHIMURIUM, Strain/Indicator: TA102, Metabolic Activation: RAT, LIVER, S-9, AROCLOR 1254, Method: STANDARD PLATE): inactive; negative

From PubChem BioAssay AID1259407 (Chemical Carcinogenesis Research Information System (CCRIS), 2018)
